Experimental data published in ChEMBL document CHEMBL1153562, “Are all the DNA gyrase mutations found in Mycobacterium leprae clinical strains involved in resistance to fluoroquinolones?” (Antimicrob Agents Chemother, 2008).
≈ marks a conversion by molar mass, not a printed value. Calls of active or inactive are those of the source. No cut-off for these calls is given here.

The molecules below were run on Mycobacterium leprae (assay: Selectivity index, ratio of IC50 for Mycobacterium leprae DNA gyrase subunit A A91V mutant to IC50 for Mycobacterium leprae wild type DNA gyrase A2B2).

**Q.** Which “fold change (FC)” value does the source give for `COc1c(N2CCNC(C)C2)c(F)cc2c(=O)c(C(=O)O)cn(C3CC3)c12` (stereo unspecified) [GATIFLOXACIN] here?
**A.** Its value is 5.

**Q.** `COc1c(N2C[C@@H]3CCCN[C@@H]3C2)c(F)cc2c(=O)c(C(=O)O)cn(C3CC3)c12` [MOXIFLOXACIN] was tested. Which “fold change (FC)” value did it give?
**A.** The value was 5.

**Q.** `CC1COc2c(N3CCN(C)CC3)c(F)cc3c(=O)c(C(=O)O)cn1c23` (stereo unspecified) [OFLOXACIN] was tested. Which “fold change (FC)” value did it give?
**A.** The value was 5.

What follows are molecules tested on Mycobacterium leprae (assay: Inhibition of Mycobacterium […] B D205N mutant assessed as DNA supercoiling inhibition).

**Q.** `C[C@H]1NCc2cc(-c3ccc4c(=O)c(C(=O)O)cn(C5CC5)c4c3OC(F)F)ccc21` [GARENOXACIN] was tested. Which IC50 did it give?
**A.** Its IC50 is 16 µg/mL (≈ 37.5 µM).

**Q.** Which IC50 does the source give for `COc1c(N2CCNC(C)C2)c(F)cc2c(=O)c(C(=O)O)cn(C3CC3)c12` (stereo unspecified) [GATIFLOXACIN] here?
**A.** The IC50 was 4.5 µg/mL (≈ 12 µM).

**Q.** For `CCn1cc(C(=O)O)c(=O)c2ccc(C)nc21` [NALIDIXIC ACID], which IC50 is on record?
**A.** Its IC50 is 600 µg/mL (≈ 2580 µM).

**Q.** Which IC50 does the source give for `CO[C@@H]1[C@@H](OC(N)=O)[C@@H](O)[C@H](Oc2ccc3c(O)c(NC(=O)c4ccc(O)c(CC=C(C)C)c4)c(=O)oc3c2C)OC1(C)C` [NOVOBIOCIN] here?
**A.** Its IC50 is 0.3 µg/mL (≈ 0.49 µM).

**Q.** With `CC1COc2c(N3CCN(C)CC3)c(F)cc3c(=O)c(C(=O)O)cn1c23` (stereo unspecified) [OFLOXACIN] as the molecule, how does the IC50 read?
**A.** The IC50 was 20 µg/mL (≈ 55.3 µM).

**Q.** `CCn1cc(C(=O)O)c(=O)c2cc3c(cc21)OCO3` [OXOLINIC ACID] was tested. Which IC50 did it give?
**A.** The IC50 was 700 µg/mL (≈ 2680 µM).

What follows are molecules tested on Mycobacterium leprae (assay: Inhibition of Mycobacterium leprae wild type DNA gyrase A2B2 assessed as DNA supercoiling inhibition).

**Q.** `C[C@H]1NCc2cc(-c3ccc4c(=O)c(C(=O)O)cn(C5CC5)c4c3OC(F)F)ccc21` [GARENOXACIN] was tested. Which IC50 did it give?
**A.** The IC50 was 6 µg/mL (≈ 14.1 µM).

**Q.** `COc1c(N2CCNC(C)C2)c(F)cc2c(=O)c(C(=O)O)cn(C3CC3)c12` (stereo unspecified) [GATIFLOXACIN] was tested. Which IC50 did it give?
**A.** Its IC50 is 3.5 µg/mL (≈ 9.32 µM).

**Q.** With `COc1c(N2C[C@@H]3CCCN[C@@H]3C2)c(F)cc2c(=O)c(C(=O)O)cn(C3CC3)c12` [MOXIFLOXACIN] as the molecule, how does the IC50 read?
**A.** Its IC50 is 6 µg/mL (≈ 14.9 µM).

**Q.** Which IC50 does the source give for `CO[C@@H]1[C@@H](OC(N)=O)[C@@H](O)[C@H](Oc2ccc3c(O)c(NC(=O)c4ccc(O)c(CC=C(C)C)c4)c(=O)oc3c2C)OC1(C)C` [NOVOBIOCIN] here?
**A.** The IC50 was 0.25 µg/mL (≈ 0.408 µM).

**Q.** For `CC1COc2c(N3CCN(C)CC3)c(F)cc3c(=O)c(C(=O)O)cn1c23` (stereo unspecified) [OFLOXACIN], which IC50 is on record?
**A.** Its IC50 is 15 µg/mL (≈ 41.5 µM).

**Q.** How did the IC50 turn out when `CCn1cc(C(=O)O)c(=O)c2cc3c(cc21)OCO3` [OXOLINIC ACID] was run?
**A.** Its IC50 is 400 µg/mL (≈ 1530 µM).

What follows are molecules tested on Mycobacterium leprae (assay: (§1) Inhibition of Mycobacterium […] A A91V mutant assessed as formation of DNA cleavable complex).

**Q.** For `C[C@H]1NCc2cc(-c3ccc4c(=O)c(C(=O)O)cn(C5CC5)c4c3OC(F)F)ccc21` [GARENOXACIN], which CC25 is on record?
**A.** The CC25 was 17 µg/mL (≈ 39.9 µM).

**Q.** For `COc1c(N2CCNC(C)C2)c(F)cc2c(=O)c(C(=O)O)cn(C3CC3)c12` (stereo unspecified) [GATIFLOXACIN], which CC25 is on record?
**A.** Its CC25 is 4 µg/mL (≈ 10.7 µM).

**Q.** For `CC1COc2c(N3CCN(C)CC3)c(F)cc3c(=O)c(C(=O)O)cn1c23` (stereo unspecified) [OFLOXACIN], which CC25 is on record?
**A.** The CC25 was 110 µg/mL (≈ 304 µM).

The molecules below were run on Mycobacterium leprae [A91V] (assay: as §1).

**Q.** For `CCn1cc(C(=O)O)c(=O)c2ccc(C)nc21` [NALIDIXIC ACID], which CC25 is on record?
**A.** The CC25 was “inactive”.

**Q.** For `CCn1cc(C(=O)O)c(=O)c2cc3c(cc21)OCO3` [OXOLINIC ACID], which CC25 is on record?
**A.** Its CC25 is “inactive”.

These molecules were tested on Mycobacterium leprae (assay: Inhibition of Mycobacterium leprae wild type DNA gyrase A2B2 assessed as formation of DNA cleavable complex).

**Q.** Which CC25 does the source give for `C[C@H]1NCc2cc(-c3ccc4c(=O)c(C(=O)O)cn(C5CC5)c4c3OC(F)F)ccc21` [GARENOXACIN] here?
**A.** The CC25 was 1 µg/mL (≈ 2.35 µM).

**Q.** With `COc1c(N2CCNC(C)C2)c(F)cc2c(=O)c(C(=O)O)cn(C3CC3)c12` (stereo unspecified) [GATIFLOXACIN] as the molecule, how does the CC25 read?
**A.** The CC25 was 0.3 µg/mL (≈ 0.799 µM).

**Q.** Which CC25 does the source give for `CCn1cc(C(=O)O)c(=O)c2ccc(C)nc21` [NALIDIXIC ACID] here?
**A.** Its CC25 is “inactive”.

**Q.** With `CC1COc2c(N3CCN(C)CC3)c(F)cc3c(=O)c(C(=O)O)cn1c23` (stereo unspecified) [OFLOXACIN] as the molecule, how does the CC25 read?
**A.** Its CC25 is 9 µg/mL (≈ 24.9 µM).

**Q.** How did the CC25 turn out when `CCn1cc(C(=O)O)c(=O)c2cc3c(cc21)OCO3` [OXOLINIC ACID] was run?
**A.** Its CC25 is “inactive”.

The molecules below were run on Mycobacterium leprae (assay: Selectivity index, ratio of IC50 for Mycobacterium leprae DNA gyrase subunit A G89C mutant to IC50 for Mycobacterium leprae wild type DNA gyrase A2B2).

**Q.** For `COc1c(N2C[C@@H]3CCCN[C@@H]3C2)c(F)cc2c(=O)c(C(=O)O)cn(C3CC3)c12` [MOXIFLOXACIN], which “fold change (FC)” value is on record?
**A.** Its value is 3.

What follows are molecules tested on Mycobacterium leprae (assay: Inhibition of Mycobacterium leprae DNA gyrase subunit A G89C mutant assessed as DNA supercoiling inhibition).

**Q.** Which IC50 does the source give for `C[C@H]1NCc2cc(-c3ccc4c(=O)c(C(=O)O)cn(C5CC5)c4c3OC(F)F)ccc21` [GARENOXACIN] here?
**A.** The IC50 was 5 µg/mL (≈ 11.7 µM).

**Q.** `COc1c(N2CCNC(C)C2)c(F)cc2c(=O)c(C(=O)O)cn(C3CC3)c12` (stereo unspecified) [GATIFLOXACIN] was tested. Which IC50 did it give?
**A.** The IC50 was 20 µg/mL (≈ 53.3 µM).

**Q.** Which IC50 does the source give for `COc1c(N2C[C@@H]3CCCN[C@@H]3C2)c(F)cc2c(=O)c(C(=O)O)cn(C3CC3)c12` [MOXIFLOXACIN] here?
**A.** The IC50 was 30 µg/mL (≈ 74.7 µM).

**Q.** `CCn1cc(C(=O)O)c(=O)c2ccc(C)nc21` [NALIDIXIC ACID] was tested. Which IC50 did it give?
**A.** Its IC50 is 150 µg/mL (≈ 646 µM).

**Q.** Which IC50 does the source give for `CO[C@@H]1[C@@H](OC(N)=O)[C@@H](O)[C@H](Oc2ccc3c(O)c(NC(=O)c4ccc(O)c(CC=C(C)C)c4)c(=O)oc3c2C)OC1(C)C` [NOVOBIOCIN] here?
**A.** Its IC50 is 0.3 µg/mL (≈ 0.49 µM).

**Q.** Which IC50 does the source give for `CC1COc2c(N3CCN(C)CC3)c(F)cc3c(=O)c(C(=O)O)cn1c23` (stereo unspecified) [OFLOXACIN] here?
**A.** The IC50 was 160 µg/mL (≈ 443 µM).

**Q.** `CCn1cc(C(=O)O)c(=O)c2cc3c(cc21)OCO3` [OXOLINIC ACID] was tested. Which IC50 did it give?
**A.** Its IC50 is 180 µg/mL (≈ 689 µM).

These molecules were tested on Mycobacterium leprae (assay: Inhibition of Mycobacterium […] B D205N mutant assessed as formation of DNA cleavable complex).

**Q.** `CCn1cc(C(=O)O)c(=O)c2ccc(C)nc21` [NALIDIXIC ACID] was tested. Which CC25 did it give?
**A.** The CC25 was “inactive”.

**Q.** For `CC1COc2c(N3CCN(C)CC3)c(F)cc3c(=O)c(C(=O)O)cn1c23` (stereo unspecified) [OFLOXACIN], which CC25 is on record?
**A.** The CC25 was 8 µg/mL (≈ 22.1 µM).

**Q.** For `CCn1cc(C(=O)O)c(=O)c2cc3c(cc21)OCO3` [OXOLINIC ACID], which CC25 is on record?
**A.** The CC25 was “inactive”.

The molecules below were run on Mycobacterium leprae (assay: Selectivity index, ratio of CC25 for Mycobacterium leprae DNA gyrase subunit A A91V mutant to CC25 for Mycobacterium leprae wild type DNA gyrase A2B2 by DNA cleavage assay).

**Q.** `C[C@H]1NCc2cc(-c3ccc4c(=O)c(C(=O)O)cn(C5CC5)c4c3OC(F)F)ccc21` [GARENOXACIN] was tested. Which fold change (FC) did it give?
**A.** The fold change (FC) was 17.

**Q.** Which “fold change (FC)” value does the source give for `COc1c(N2CCNC(C)C2)c(F)cc2c(=O)c(C(=O)O)cn(C3CC3)c12` (stereo unspecified) [GATIFLOXACIN] here?
**A.** The value was 12.

**Q.** With `CC1COc2c(N3CCN(C)CC3)c(F)cc3c(=O)c(C(=O)O)cn1c23` (stereo unspecified) [OFLOXACIN] as the molecule, how does the “fold change (FC)” value read?
**A.** The value was 12.

What follows are molecules tested on Mycobacterium leprae (assay: Inhibition of Mycobacterium leprae DNA gyrase subunit A A91V mutant assessed as DNA supercoiling inhibition).

**Q.** How did the IC50 turn out when `C[C@H]1NCc2cc(-c3ccc4c(=O)c(C(=O)O)cn(C5CC5)c4c3OC(F)F)ccc21` [GARENOXACIN] was run?
**A.** The IC50 was 8 µg/mL (≈ 18.8 µM).

**Q.** With `COc1c(N2CCNC(C)C2)c(F)cc2c(=O)c(C(=O)O)cn(C3CC3)c12` (stereo unspecified) [GATIFLOXACIN] as the molecule, how does the IC50 read?
**A.** Its IC50 is 20 µg/mL (≈ 53.3 µM).

**Q.** With `COc1c(N2C[C@@H]3CCCN[C@@H]3C2)c(F)cc2c(=O)c(C(=O)O)cn(C3CC3)c12` [MOXIFLOXACIN] as the molecule, how does the IC50 read?
**A.** Its IC50 is 25 µg/mL (≈ 62.3 µM).

**Q.** With `CCn1cc(C(=O)O)c(=O)c2ccc(C)nc21` [NALIDIXIC ACID] as the molecule, how does the IC50 read?
**A.** The IC50 was 170 µg/mL (≈ 732 µM).

**Q.** `CO[C@@H]1[C@@H](OC(N)=O)[C@@H](O)[C@H](Oc2ccc3c(O)c(NC(=O)c4ccc(O)c(CC=C(C)C)c4)c(=O)oc3c2C)OC1(C)C` [NOVOBIOCIN] was tested. Which IC50 did it give?
**A.** Its IC50 is 0.2 µg/mL (≈ 0.326 µM).

**Q.** How did the IC50 turn out when `CC1COc2c(N3CCN(C)CC3)c(F)cc3c(=O)c(C(=O)O)cn1c23` (stereo unspecified) [OFLOXACIN] was run?
**A.** Its IC50 is 80 µg/mL (≈ 221 µM).

**Q.** `CCn1cc(C(=O)O)c(=O)c2cc3c(cc21)OCO3` [OXOLINIC ACID] was tested. Which IC50 did it give?
**A.** Its IC50 is 200 µg/mL (≈ 766 µM).
